Laboratory results taken from US20080057086A1, “COLON-TARGETED ORAL FORMULATIONS OF CYTIDINE ANALOGS” (PHARMION CORPORATION, priority 2006, published 2008).
Like-named read-outs stand apart in the source and are kept apart here.

What was measured:
[1] = test system: human intestinal tissue (jejunum, ileum, colon); experiment: Permeability in viable human intestinal strips (USSING chambers), mucosal to serosal; format: in vitro ADME
Source text: (§1) This model allows evaluation of the absorption potential of drugs and differences in drug absorption across the human jejunum, ileum, and colon and is based on Ungell et al. “Membrane Transport of Drugs in Different Regions of the Intestinal Tract of the Rat”, J. Pharm. Sci. 87:360-366, (1998) and Nejdfors et al. “Mucosal in vitro Permeability in the Intestinal Tract of the Pig, the Rat, and Man: Species and Region Related Differences”, Scand. J. Gastroenterol. 35:501-507, (2000). Permeation experiments were performed for 5-azacytidine in the jejunal, ileal, and colonic tissues originating from the same human donor. Post-mortem human whole intestine was obtained from the International Institute for the Advancement of Medicine (IIAM). Tissues were used within 24 hours of the organ's removal. Tissues were maintained in cold transport media before being stripped. The segments were cut along the mesenteric border, the underlying musculature was stripped off, and the epithelium was rinsed with ice cold normal saline. The stripped tissues were mounted within the vertical USSING chambers (Harvard Apparatus, Holliston, Mass.). In these studies, 5-azacytidine permeability was measured in both absolute rate and relative to atenolol (internal control). In all cases the net apparent permeability was assessed in the mucosal to serosal direction only.

[2] = test system: human colonic tissue; experiment: Permeation enhancement in human colonic strips; format: in vitro ADME; details: without enzymatic inhibition (FIGS. 3, 4)
Source text: as §1

[3] = Clinical study of single oral doses of 5-azacytidine (oral formulation of Example 3): PK, bioavailability, safety; format: in vivo, human; details: for bioavailability: oral, SC reference dose = 135 mg, AUC = 777 ng · h/mL, read-out: F, percent bioavailability compared with historical SC azacitidine data
Description: The study was a multicenter, open-label, single treatment study. Patients were treated with escalating doses, in 20 mg increments, up to 200 mg. The study assessed the safety and tolerability of escalating doses, provided pilot information on the oral bioavailability of the study drug, and provided information on the single dose pharmacokinetics of the study drug after oral administration.
Multicenter, open-label, single-treatment, escalating-dose PK study. […] Single subject cohorts were used for each dose escalation. Subsequent subjects were to be treated at escalating doses, up to 200 mg, in 20 mg increments. Dose escalation was to continue until 1 of the following conditions was reached: • a.
If no safety concerns were identified and no Grade 3 or 4 AEs occurred in these subjects, dose escalation was to continue. […] Serial blood samples for plasma PK analyses were drawn before, and at the following time points after, dosing: 0.5, 1, 1.5, 2, 2.5, 3, 3.5, 4, 4.5, 5, 5.5, 6, 6.5, 7, 8 hours, and 12 hours (if possible). […] PK parameters calculated from plasma concentrations included (but were not limited to) Cmax, Tmax, t1/2, and AUC(0−∞).

[4] = Excipient compatibility studies; format: physicochemical
[5] = test system: fetal hemoglobin production; details: baboons; IV, SC or PO route; PO needed co-administration of THU; 0.25 to 8 mg/kg/d with 20 mg/kg/d THU; cited from earlier work
[6] = test system: total hemoglobin, fetal hemoglobin and F cells; details: sickle cell patients, cited from earlier work
[7] = 1 subject, 60 mg single oral dose
[8] = 1 subject, 80 mg single oral dose
[9] = all 4 subjects, 60 or 80 mg single oral dose
[10] = human, plasma, po, 60 mg, Subject 101, 60 mg single oral dose (Example 3 tablets)
[11] = human, plasma, po, 60 mg, Subject 101, 60 mg single oral dose (Example 3 tablets), read-out: Plasma concentration
[12] = human, plasma, po, 80 mg, Mean (n = 3), 80 mg single oral dose (Example 3 tablets)
[13] = human, plasma, po, 80 mg, Mean of 80 mg dose group (n=3), single oral dose (Example 3 tablets), read-out: Mean plasma concentration
[14] = human, plasma, po, 80 mg, Subject 102, 80 mg single oral dose (Example 3 tablets)
[15] = human, plasma, po, 80 mg, Subject 102, 80 mg single oral dose (Example 3 tablets), read-out: Plasma concentration
[16] = human, plasma, po, 80 mg, Subject 201, 80 mg single oral dose (Example 3 tablets)
[17] = human, plasma, po, 80 mg, Subject 201, 80 mg single oral dose (Example 3 tablets), read-out: Plasma concentration
[18] = human, plasma, po, 80 mg, Subject 202, 80 mg single oral dose (Example 3 tablets)
[19] = human, plasma, po, 80 mg, Subject 202, 80 mg single oral dose (Example 3 tablets), read-out: Plasma concentration

Nc1ncn([C@@H]2O[C@H](CO)[C@@H](O)[C@H]2O)c(=O)n1 [5-azacytidine, 4-amino-1-β-D-ribofuranosyl-1,3,5-triazin-2(1H)-one]
Absolute mucosal to serosal permeability by intestinal region ([1]; colon relative to jejunum and ileum, multiple donors (FIG. 1)): greatest in the colon
Effect of enzymatic inhibitors on absolute permeability ([1]; with ketoconazole and THU, increase maximal in jejunum and ileum, relatively small in colon): increased the absolute permeability in all GI tract regions
Permeability with permeation enhancer ([2]; various concentrations of Labrafil): did not appear to affect
Permeability with permeation enhancer ([2]; various concentrations of TPGS): trend toward greater permeability with increasing levels of TPGS
Plasma samples with quantifiable 5-azacytidine [3, 7]: 2 samples
Tolerability [3, 7]: well tolerated
Consecutive plasma samples with detectable 5-azacytidine [3, 8]: 4 consecutive samples
Tolerability [3, 8]: well tolerated
Mean plasma concentration ([3]; Mean of 80 mg dose group (n=3), single oral dose (Example 3 tablets), 4.0 h): BLQ
Mean plasma concentration ([3]; Mean of 80 mg dose group (n=3), single oral dose (Example 3 tablets), 4.5 h): BLQ
Mean plasma concentration ([3]; Mean of 80 mg dose group (n=3), single oral dose (Example 3 tablets), 5.0 h): BLQ
Plasma concentration ([3]; Subject 101, 60 mg single oral dose (Example 3 tablets), 0.5 h): BLQ
Plasma concentration ([3]; Subject 101, 60 mg single oral dose (Example 3 tablets), 4.5 h): BLQ
Plasma concentration ([3]; Subject 101, 60 mg single oral dose (Example 3 tablets), 5.0 h): BLQ
Plasma concentration ([3]; Subject 102, 80 mg single oral dose (Example 3 tablets), 0.5 h): BLQ
Plasma concentration ([3]; Subject 102, 80 mg single oral dose (Example 3 tablets), 3.5 h): BLQ
Plasma concentration ([3]; Subject 102, 80 mg single oral dose (Example 3 tablets), 4.0 h): BLQ
Plasma concentration ([3]; Subject 102, 80 mg single oral dose (Example 3 tablets), 4.5 h): BLQ
Plasma concentration ([3]; Subject 102, 80 mg single oral dose (Example 3 tablets), 5.0 h): BLQ
Plasma concentration ([3]; Subject 201, 80 mg single oral dose (Example 3 tablets), 0.5 h): BLQ
Plasma concentration ([3]; Subject 201, 80 mg single oral dose (Example 3 tablets), 5.0 h): BLQ
Plasma concentration ([3]; Subject 202, 80 mg single oral dose (Example 3 tablets), 4.0 h): BLQ
Plasma concentration ([3]; Subject 202, 80 mg single oral dose (Example 3 tablets), 4.5 h): BLQ
Plasma concentration ([3]; Subject 202, 80 mg single oral dose (Example 3 tablets), 5.0 h): BLQ
Grade of AEs possibly related to study drug [3, 9]: Grade 2
Study-drug-related SAEs [3, 9]: No study-drug-related SAEs
bioavailability ([3]; human, plasma, 60 mg, Subject 101, 60 mg single oral dose): 6.7%
bioavailability ([3]; human, plasma, 80 mg, Mean (n = 3), 80 mg single oral dose): 18%
bioavailability ([3]; human, plasma, 80 mg, Subject 102, 80 mg single oral dose): 6.3%
bioavailability ([3]; human, plasma, 80 mg, Subject 201, 80 mg single oral dose): 24%
bioavailability ([3]; human, plasma, 80 mg, Subject 202, 80 mg single oral dose): 22%
AUC(0-inf) [3, 10]: 22.6 ng·h/mL
Cmax [3, 10]: 15.8 ng/mL
Tmax [3, 10]: 3 h
concentration at 0 h [3, 11]: 0 ng/mL
concentration at 1 h [3, 11]: 3.72 ng/mL
concentration at 1.5 h [3, 11]: 4.56 ng/mL
concentration at 2 h [3, 11]: 3.75 ng/mL
concentration at 3 h [3, 11]: 15.8 ng/mL
concentration at 3.5 h ([3]; human, plasma, po, 60 mg, Subject 101, 60 mg single oral dose (Example 3 tablets), 3.5 h, read-out: Plasma concentration): 4.27 ng/mL
concentration at 4 h ([3]; human, plasma, po, 60 mg, Subject 101, 60 mg single oral dose (Example 3 tablets), 4.0 h): 1.55 ng/mL
AUC(0-inf) [3, 12]: 81.5 ng·h/mL
Cmax [3, 12]: 53.2 ng/mL
Tmax [3, 12]: 1.5 h
half-life [3, 12]: 0.361 h
concentration at 0 h [3, 13]: 0 ng/mL
concentration at 0.5 h ([3]; human, plasma, po, 80 mg, Mean of 80 mg dose group (n=3), single oral dose (Example 3 tablets), 0.5 h, read-out: Mean plasma concentration): 1.49 ng/mL
concentration at 1 h [3, 13]: 46.6 ng/mL
concentration at 1.5 h [3, 13]: 53.2 ng/mL
concentration at 2 h [3, 13]: 36.9 ng/mL
concentration at 2.5 h [3, 13]: 17.5 ng/mL
concentration at 3 h [3, 13]: 6.3 ng/mL
concentration at 3.5 h ([3]; human, plasma, po, 80 mg, Mean of 80 mg dose group (n=3), single oral dose (Example 3 tablets), 3.5 h, read-out: Mean plasma concentration): 2.57 ng/mL
AUC(0-inf) [3, 14]: 28.6 ng·h/mL
Cmax [3, 14]: 34.3 ng/mL
Tmax [3, 14]: 1.5 h
half-life [3, 14]: 0.336 h
concentration at 0 h [3, 15]: 0 ng/mL
concentration at 1 h [3, 15]: 9.25 ng/mL
concentration at 1.5 h [3, 15]: 34.3 ng/mL
concentration at 2 h [3, 15]: 11 ng/mL
concentration at 2.5 h [3, 15]: 3.61 ng/mL
concentration at 3 h [3, 15]: 1.4 ng/mL
AUC(0-inf) [3, 16]: 111 ng·h/mL
Cmax [3, 16]: 75.1 ng/mL
Tmax [3, 16]: 2 h
half-life [3, 16]: 0.416 h
concentration at 0 h [3, 17]: 0 ng/mL
concentration at 1 h [3, 17]: 31.5 ng/mL
concentration at 1.5 h [3, 17]: 58.5 ng/mL
concentration at 2 h [3, 17]: 75.1 ng/mL
concentration at 2.5 h [3, 17]: 36.4 ng/mL
concentration at 3 h [3, 17]: 14.1 ng/mL
concentration at 3.5 h ([3]; human, plasma, po, 80 mg, Subject 201, 80 mg single oral dose (Example 3 tablets), 3.5 h, read-out: Plasma concentration): 6.1 ng/mL
concentration at 4 h ([3]; human, plasma, po, 80 mg, Subject 201, 80 mg single oral dose (Example 3 tablets), 4.0 h): 2.43 ng/mL
concentration at 4.5 h ([3]; human, plasma, po, 80 mg, Subject 201, 80 mg single oral dose (Example 3 tablets), 4.5 h): 1.19 ng/mL
AUC(0-inf) [3, 18]: 103 ng·h/mL
Cmax [3, 18]: 99.1 ng/mL
Tmax [3, 18]: 1 h
half-life [3, 18]: 0.366 h
concentration at 0 h [3, 19]: 0 ng/mL
concentration at 0.5 h ([3]; human, plasma, po, 80 mg, Subject 202, 80 mg single oral dose (Example 3 tablets), 0.5 h, read-out: Plasma concentration): 4.46 ng/mL
concentration at 1 h [3, 19]: 99.1 ng/mL
concentration at 1.5 h [3, 19]: 66.7 ng/mL
concentration at 2 h [3, 19]: 24.5 ng/mL
concentration at 2.5 h [3, 19]: 12.5 ng/mL
concentration at 3 h [3, 19]: 3.41 ng/mL
concentration at 3.5 h ([3]; human, plasma, po, 80 mg, Subject 202, 80 mg single oral dose (Example 3 tablets), 3.5 h, read-out: Plasma concentration): 1.61 ng/mL
Tmax ([3]; human, plasma, po, 80 mg, individual subjects who received an 80 mg oral dose (three values), post-dose): 1.5 h
Cmax increase versus the 60 mg dose ([3]; mean 80 mg oral dose): 3.5 fold
Time at which concentrations were below the level of quantitation ([3]; mean 80 mg oral dose): 4.0 h
Apparent oral bioavailability ([3]; oral formulation of Example 3): acceptable for therapeutic treatment
Excipient compatibility ([4]; each excipient of the Example 3 formulation (Table 2)): compatible with each excipient
Excipient compatibility ([4]; each excipient of the Example 4 formulation (Table 3)): compatible with each excipient
Excipient compatibility ([4]; each excipient of the Example 6 formulation (Table 7)): compatible with each excipient
Excipient compatibility ([4]; each excipient of the Example 7 formulation (Table 8)): compatible with each excipient
Excipient compatibility ([4]; each excipient of the Example 8 formulation (Table 9)): compatible with each excipient
Excipient compatibility ([4]; each excipient of the Example 9 formulation (Table 10)): compatible with each excipient
Fetal hemoglobin production [5]: induce fetal hemoglobin production
Clinical response, SC without THU versus PO with THU ([6]; 2 mg/kg/d SC without THU versus 0.2 mg/kg/d PO with 200 mg/d THU): comparable clinical response
Clinical response (total hemoglobin, fetal hemoglobin and F cell levels) ([6]; 5-azacytidine co-administered with THU): good clinical response
F reticulocyte production ([6]; oral 5-azacytidine 2 mg/kg/d alone): did not result in increased F reticulocyte production
